Test results: US20250098679A1, “HERBICIDAL PYRIDONE DERIVATIVES” (SYNGENTA CROP PROTECTION AG, priority 2021, published 2025)

Assays:
Type in all cases: in vivo
[1] = system: Echinochloa crus-galli (ECHCG); assay: Post-emergence Test, Echinochloa crus-galli (ECHCG); parameters: key to percentage damage caused to the plant, ECHCG (five-point scale): 5=81-100%, 4=61-80%, 3=41-60%, 2=21-40%, 1=0-20% damage; conditions: evaluated after 13 days; for Post-emergence Test ECHCG, percentage damage caused to the plant (five-point scale): 250 g/Ha (*); for percentage damage caused to the plant, ECHCG (five-point scale): 250 g/Ha
How it was run: (§1)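 Tested at 1000 g/ha unless otherwise stated. Plants were held at 24/16 °C day/night with a 14 h light period. Percent damage was read at 13 days and reported in five bands.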

[2] = system: Amaranthus palmeri (AMAPA); assay: Pre-emergence Test, Amaranthus palmeri (AMAPA); conditions: evaluated after 13 days
[3] = system: Ipomoea hederacea (IPOHE); assay: Pre-emergence Test, Ipomoea hederacea (IPOHE); conditions: evaluated after 13 days
[4] = system: Zea mays (ZEAMX); assay: Post-emergence Test, Zea mays (ZEAMX); parameters: key to percentage damage caused to the plant, ZEAMX (five-point scale): 5=81-100%, 4=61-80%, 3=41-60%, 2=21-40%, 1=0-20% damage; conditions: evaluated after 13 days
How it was run: as §1

[5] = system: Setaria faberi (SETFA); assay: Post-emergence Test, Setaria faberi (SETFA); parameters: key to percentage damage caused to the plant, SETFA (five-point scale): 5=81-100%, 4=61-80%, 3=41-60%, 2=21-40%, 1=0-20% damage; conditions: 1000 g/ha, evaluated after 13 days
How it was run: as §1

[6] = system: Amaranthus retoflexus (AMARE); assay: Pre-emergence Test, Amaranthus retoflexus (AMARE); conditions: evaluated after 13 days
[7] = system: Ipomoea hederacea (IPOHE); assay: Post-emergence Test, Ipomoea hederacea (IPOHE); parameters: key to percentage damage caused to the plant, IPOHE (five-point scale): 5=81-100%, 4=61-80%, 3=41-60%, 2=21-40%, 1=0-20% damage; conditions: evaluated after 13 days
How it was run: as §1

[8] = system: Echinochloa crus-galli (ECHCG); assay: Pre-emergence Test, Echinochloa crus-galli (ECHCG); conditions: evaluated after 13 days
[9] = system: Amaranthus retoflexus (AMARE); assay: Post-emergence Test, Amaranthus retoflexus (AMARE); parameters: key to percentage damage caused to the plant, AMARE (five-point scale): 5=81-100%, 4=61-80%, 3=41-60%, 2=21-40%, 1=0-20% damage; conditions: evaluated after 13 days
How it was run: as §1

[10] = system: Amaranthus palmeri (AMAPA); assay: Post-emergence Test, Amaranthus palmeri (AMAPA); parameters: key: 5=81-100%, 4=61-80%, 3=41-60%, 2=21-40%, 1=0-20% damage; conditions: evaluated after 13 days
How it was run: as §1

[11] = system: Zea mays (ZEAMX); assay: Pre-emergence Test, Zea mays (ZEAMX); conditions: evaluated after 13 days

Compound | Pre-emergence Test AMAPA, percentage damage caused to the plant (five-point scale) ([2]; 250 g/Ha (*)) | Pre-emergence Test AMAPA, percentage damage caused to the plant (five-point scale) ([2]; 1000 g/ha) | Pre-emergence Test IPOHE, percentage damage caused to the plant (five-point scale) ([3]; 250 g/Ha (*)) | Pre-emergence Test IPOHE, percentage damage caused to the plant (five-point scale) ([3]; 1000 g/ha) | Pre-emergence Test AMARE, percentage damage caused to the plant (five-point scale) ([6]; 250 g/Ha (*)) | Pre-emergence Test AMARE, percentage damage caused to the plant (five-point scale) ([6]; 1000 g/ha) | Pre-emergence Test ECHCG, percentage damage caused to the plant (five-point scale) ([8]; 250 g/Ha (*)) | Pre-emergence Test ECHCG, percentage damage caused to the plant (five-point scale) ([8]; 1000 g/ha) | Pre-emergence Test ZEAMX, percentage damage caused to the plant (five-point scale) ([11]; 250 g/Ha (*)) | Pre-emergence Test ZEAMX, percentage damage caused to the plant (five-point scale) ([11]; 1000 g/ha) | percentage damage caused to the plant, ECHCG (five-point scale) [1] | percentage damage caused to the plant, ZEAMX (five-point scale) ([4]; 250 g/Ha) | percentage damage caused to the plant, ZEAMX (five-point scale) ([4]; 1000 g/ha) | percentage damage caused to the plant, SETFA (five-point scale) [5] | percentage damage caused to the plant, IPOHE (five-point scale) ([7]; 250 g/Ha) | percentage damage caused to the plant, IPOHE (five-point scale) ([7]; 1000 g/ha) | percentage damage caused to the plant, AMARE (five-point scale) ([9]; 250 g/Ha) | percentage damage caused to the plant, AMARE (five-point scale) ([9]; 1000 g/ha) | percentage damage caused to the plant, AMAPA (five-point scale) ([10]; 250 g/Ha) | percentage damage caused to the plant, AMAPA (five-point scale) ([10]; 1000 g/ha) | other results
CCn1c(Cn2ccc(/C=N/OC)n2)cc(=O)c(C(=O)O)c1-c1ccc(Cl)c(Cl)c1 [Compound 204, 2-(3,4-dichlorophenyl)-1-ethyl-6-[[3-[(E)-methoxyiminomethyl]pyrazol-1-yl]methyl]-4-oxo-pyridine-3-carboxylic acid] | 1 (1=0-20%) | 1 (1=0-20%) | 2 (2=21-40%) | 4 (4=61-80%) | 0 | 1 (1=0-20%) | 2 (2=21-40%) | 4 (4=61-80%) | 1 (1=0-20%) | 2 (2=21-40%) | – | – | – | – | – | – | – | – | – | – | Post-emergence Test ECHCG, percentage damage caused to the plant (five-point scale) [1]: 3 (3=41-60%); Post-emergence Test ZEAMX, percentage damage caused to the plant (five-point scale) ([4]; 250 g/Ha (*)): 2 (2=21-40%); Post-emergence Test ZEAMX, percentage damage caused to the plant (five-point scale) ([4]; 1000 g/ha): 3 (3=41-60%); Post-emergence Test SETFA, percentage damage caused to the plant (five-point scale) [5]: 4 (4=61-80%); Post-emergence Test IPOHE, percentage damage caused to the plant (five-point scale) ([7]; 250 g/Ha (*)): 2 (2=21-40%); Post-emergence Test IPOHE, percentage damage caused to the plant (five-point scale) ([7]; 1000 g/ha): 3 (3=41-60%); Post-emergence Test AMARE, percentage damage caused to the plant (five-point scale) ([9]; 250 g/Ha (*)): 1 (1=0-20%); Post-emergence Test AMARE, percentage damage caused to the plant (five-point scale) ([9]; 1000 g/ha): 2 (2=21-40%); Post-emergence Test AMAPA, percentage damage caused to the plant (five-point scale) ([10]; 250 g/Ha (*)): 1 (1=0-20%); Post-emergence Test AMAPA, percentage damage caused to the plant (five-point scale) ([10]; 1000 g/ha): 1 (1=0-20%)
CCn1c(Cn2nc(C(F)F)cc2C)cc(=O)c(C(=O)O)c1-c1ccc(Cl)c(Cl)c1 [Compound 187, 2-(3,4-dichlorophenyl)-6-[[3-(difluoromethyl)-5-methyl-pyrazol-1-yl]methyl]-1-ethyl-4-oxo-pyridine-3-carboxylic acid] | – | 0 | – | 3 (3=41-60%) | – | 0 | – | 1 (1=0-20%) | – | 1 (1=0-20%) | 2 (2=21-40%) | 0 | 1 (1=0-20%) | 1 (1=0-20%) | 1 (1=0-20%) | 4 (4=61-80%) | 0 | 1 (1=0-20%) | 0 | 1 (1=0-20%) | –
CCOc1ccn(Cc2cc(=O)c(C(=O)O)c(-c3ccc(Cl)c(Cl)c3)n2CC)n1 [Compound 164, 2-(3,4-dichlorophenyl)-6-[(3-ethoxypyrazol-1-yl)methyl]-1-ethyl-4-oxo-pyridine-3-carboxylic acid] | 0 | 1 (1=0-20%) | 4 (4=61-80%) | 4 (4=61-80%) | 1 (1=0-20%) | 1 (1=0-20%) | 4 (4=61-80%) | 5 (5=81-100%) | 1 (1=0-20%) | 0 | 4 (4=61-80%) | 4 (4=61-80%) | 4 (4=61-80%) | 5 (5=81-100%) | 3 (3=41-60%) | 4 (4=61-80%) | 1 (1=0-20%) | 3 (3=41-60%) | 1 (1=0-20%) | 3 (3=41-60%) | –
CCn1c(Cn2nc(-c3ccccc3)cc2C(F)(F)F)cc(=O)c(C(=O)O)c1-c1ccc(Cl)c(Cl)c1 [Compound 198, 2-(3,4-dichlorophenyl)-1-ethyl-4-oxo-6-[[3-phenyl-5-(trifluoromethyl)pyrazol-1-yl]methyl]pyridine-3-carboxylic acid] | – | 1 (1=0-20%) | – | 0 | – | 1 (1=0-20%) | – | 1 (1=0-20%) | – | 1 (1=0-20%) | – | – | – | – | – | – | – | – | – | – | Post-emergence Test ECHCG, percentage damage caused to the plant (five-point scale) [1]: 2 (2=21-40%); Post-emergence Test ZEAMX, percentage damage caused to the plant (five-point scale) ([4]; 250 g/Ha (*)): 1 (1=0-20%); Post-emergence Test ZEAMX, percentage damage caused to the plant (five-point scale) ([4]; 1000 g/ha): 2 (2=21-40%); Post-emergence Test SETFA, percentage damage caused to the plant (five-point scale) [5]: 2 (2=21-40%); Post-emergence Test IPOHE, percentage damage caused to the plant (five-point scale) ([7]; 250 g/Ha (*)): 1 (1=0-20%); Post-emergence Test IPOHE, percentage damage caused to the plant (five-point scale) ([7]; 1000 g/ha): 2 (2=21-40%); Post-emergence Test AMARE, percentage damage caused to the plant (five-point scale) ([9]; 250 g/Ha (*)): 1 (1=0-20%); Post-emergence Test AMARE, percentage damage caused to the plant (five-point scale) ([9]; 1000 g/ha): 4 (4=61-80%); Post-emergence Test AMAPA, percentage damage caused to the plant (five-point scale) ([10]; 250 g/Ha (*)): 1 (1=0-20%); Post-emergence Test AMAPA, percentage damage caused to the plant (five-point scale) ([10]; 1000 g/ha): 3 (3=41-60%)
CCn1c(Cn2ccc([N+](=O)[O-])n2)cc(=O)c(C(=O)O)c1-c1ccc(Cl)c(Cl)c1 [Compound 178, 2-(3,4-dichlorophenyl)-1-ethyl-6-[(3-nitropyrazol-1-yl)methyl]-4-oxo-pyridine-3-carboxylic acid] | 0 | 0 | 0 | 0 | 0 | 0 | 1 (1=0-20%) | 2 (2=21-40%) | 0 | 0 | 1 (1=0-20%) | 0 | 0 | 2 (2=21-40%) | 1 (1=0-20%) | 0 | 0 | 1 (1=0-20%) | 1 (1=0-20%) | 1 (1=0-20%) | –
CCn1c(Cn2ccc(OC(C)C)n2)cc(=O)c(C(=O)O)c1-c1ccc(Cl)c(Cl)c1 [Compound 166, 2-(3,4-dichlorophenyl)-1-ethyl-6-[(3-isopropoxypyrazol-1-yl)methyl]-4-oxo-pyridine-3-carboxylic acid] | 0 | 1 (1=0-20%) | 2 (2=21-40%) | 4 (4=61-80%) | 0 | 1 (1=0-20%) | 5 (5=81-100%) | 5 (5=81-100%) | 1 (1=0-20%) | 5 (5=81-100%) | 4 (4=61-80%) | 2 (2=21-40%) | 4 (4=61-80%) | 5 (5=81-100%) | 2 (2=21-40%) | 4 (4=61-80%) | 0 | 1 (1=0-20%) | 1 (1=0-20%) | 1 (1=0-20%) | –
